Experimental data as given in PubChem BioAssay AID248 (DTP/NCI, 2004).
Values joined by “and” are separate entries in the source; they are usually repeats but may differ in a detail not shown here. Identical values can stand only once. Toxic doses and inconclusive results are not listed. Cut-off read from the data, not from the text of the source: active = T/C of 150% or more; inactive = T/C below 125%.

Test system: L1210 leukemia ip in BDF1 mice, survival T/C
Assay: NCI In Vivo Anticancer Drug Screen. Data for tumor model L1210 Leukemia (intraperitoneal) in B6D2F1 (BDF1) mice
Conditions: endpoint: mean survival time, higher = longer survival
Outline: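 Transplanted-tumor mice were given test agent; controls received vehicle only. Survival readings from the two groups were divided (treated over control).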

[1] = dose: 100.0 mg/kg/injection, schedule: Q04DX003 (ip), vehicle: Klucel (hydroxypropylcellulose) (HPC)
[2] = dose: 100.0 mg/kg/injection, schedule: Q01DX001 (ip), vehicle: saline
[3] = dose: 100.0 mg/kg/injection, schedule: Q04DX003 (ip), vehicle: saline
[4] = dose: 100.0 mg/kg/injection, schedule: Q01DX009 (ip), vehicle: saline with Tween-80
[5] = dose: 200.0 mg/kg/injection, schedule: Q01DX009 (ip), vehicle: saline with Tween-80
[6] = dose: 400.0 mg/kg/injection, schedule: Q01DX009 (ip), vehicle: saline with Tween-80
[7] = dose: 100.0 mg/kg/injection, schedule: Q01DX009 (ip), vehicle: saline
[8] = dose: 200.0 mg/kg/injection, schedule: Q01DX009 (ip), vehicle: saline
[9] = dose: 100.0 mg/kg/injection, schedule: Q01DX001 (ip), vehicle: Klucel (hydroxypropylcellulose) (HPC)
[10] = dose: 200.0 mg/kg/injection, schedule: Q01DX001 (ip), vehicle: Klucel (hydroxypropylcellulose) (HPC)
[11] = dose: 400.0 mg/kg/injection, schedule: Q01DX001 (ip), vehicle: Klucel (hydroxypropylcellulose) (HPC)
[12] = dose: 100.0 mg/kg/injection, schedule: Q01DX009 (ip), vehicle: Klucel (hydroxypropylcellulose) (HPC)
[13] = dose: 200.0 mg/kg/injection, schedule: Q01DX009 (ip), vehicle: Klucel (hydroxypropylcellulose) (HPC)
[14] = dose: 50.0 mg/kg/injection, schedule: Q01DX009 (ip), vehicle: saline with Tween-80

Measured: T/C

ClCCN(CCCl)CCCN1c2ccccc2Sc2ccccc21
inactive: dose: 6.25 mg/kg/injection, schedule: Q01DX009 (ip), vehicle: saline with Tween-80 109 % of control | dose: 12.5 mg/kg/injection, schedule: Q01DX009 (ip), vehicle: saline with Tween-80 115 % of control | dose: 12.5 mg/kg/injection, schedule: Q04DX003 (ip), vehicle: saline with Tween-80 97 % of control | dose: 16.0 mg/kg/injection, schedule: Q04DX003 (ip), vehicle: saline with Tween-80 114 % of control | dose: 16.0 mg/kg/injection, schedule: Q04DX003 (ip), vehicle: saline 100 % of control | dose: 25.0 mg/kg/injection, schedule: Q04DX003 (ip), vehicle: saline with Tween-80 97 % of control | dose: 26.0 mg/kg/injection, schedule: Q04DX003 (ip), vehicle: saline 107 % of control | dose: 35.0 mg/kg/injection, schedule: Q04DX003 (ip), vehicle: saline with Tween-80 90 % of control | dose: 35.0 mg/kg/injection, schedule: Q04DX003 (ip), vehicle: saline 103 % of control | dose: 50.0 mg/kg/injection, schedule: Q04DX003 (ip), vehicle: saline with Tween-80 121 % of control

Cc1cc(NCCN(C(C)C)C(C)C)nc(/N=C(\N)Nc2ccc(Cl)c(Cl)c2)n1
inactive: dose: 4.69 mg/kg/injection, schedule: Q01DX009 (ip), vehicle: Klucel (hydroxypropylcellulose) (HPC) 95 % of control | dose: 9.38 mg/kg/injection, schedule: Q01DX009 (ip), vehicle: Klucel (hydroxypropylcellulose) (HPC) 93 % of control | dose: 18.75 mg/kg/injection, schedule: Q01DX009 (ip), vehicle: Klucel (hydroxypropylcellulose) (HPC) 87 % of control | dose: 75.0 mg/kg/injection, schedule: Q01DX001 (ip), vehicle: other 94 % of control | dose: 150.0 mg/kg/injection, schedule: Q01DX001 (ip), vehicle: other 105 % of control

COc1ccc(C=Nc2cc(Cl)ccc2O)cc1
inactive: dose: 100.0 mg/kg/injection, schedule: Q01DX001 (ip), vehicle: carboxymethylcellulose (CMC) 89 % of control | dose: 200.0 mg/kg/injection, schedule: Q01DX001 (ip), vehicle: carboxymethylcellulose (CMC) 95 % of control | dose: 400.0 mg/kg/injection, schedule: Q01DX001 (ip), vehicle: carboxymethylcellulose (CMC) 95 % of control

CC/C(=C\c1ccccc1)[N+](=O)[O-]
inactive: dose: 25.0 mg/kg/injection, schedule: Q01DX009 (ip), vehicle: Klucel (hydroxypropylcellulose) (HPC) 102 % of control | dose: 25.0 mg/kg/injection, schedule: Q04DX003 (ip), vehicle: Klucel (hydroxypropylcellulose) (HPC) 97 % of control | dose: 50.0 mg/kg/injection, schedule: Q01DX009 (ip), vehicle: Klucel (hydroxypropylcellulose) (HPC) 98 % of control | dose: 50.0 mg/kg/injection, schedule: Q04DX003 (ip), vehicle: Klucel (hydroxypropylcellulose) (HPC) 90 % of control | [1] 103 % of control

NC(=O)N/N=C(/CBr)c1ccc(-c2ccccc2)cc1
inactive: dose: 25.0 mg/kg/injection, schedule: Q04DX003 (ip), vehicle: saline 101 % of control | dose: 50.0 mg/kg/injection, schedule: Q04DX003 (ip), vehicle: saline 95 % of control | [2] 96 % of control | [3] 91 % of control

Cc1nnnn1C12CC3CC(CC(C3)C1)C2
inactive: dose: 18.8 mg/kg/injection, schedule: Q01DX001 (ip), vehicle: saline 110 % of control | dose: 37.5 mg/kg/injection, schedule: Q01DX001 (ip), vehicle: saline 100 % of control | dose: 75.0 mg/kg/injection, schedule: Q01DX001 (ip), vehicle: saline 105 % of control

O=C(NCc1cnccn1)OCC(Cl)(Cl)Cl
inactive: [4] 97 % of control | [5] 106 % of control | [6] 103 % of control

CC(C)CCCC(C)C1CCC2C3CC(=O)C45CC4CCC5(C)C3CCC12C (stereo not given)
inactive: dose: 100.0 mg/kg/injection, schedule: Q04DX003 (ip), vehicle: other 97 % of control | dose: 200.0 mg/kg/injection, schedule: Q04DX003 (ip), vehicle: other 102 % of control | dose: 400.0 mg/kg/injection, schedule: Q04DX003 (ip), vehicle: other 108 % of control

CCOP(=O)(OCC)OCCCN(CC)CC
inactive: dose: 50.0 mg/kg/injection, schedule: Q01DX009 (ip), vehicle: saline 101 % of control | [7] 96 % of control and 114 % of control | [3] 101 % of control | [8] 94 % of control and 105 % of control | dose: 200.0 mg/kg/injection, schedule: Q04DX003 (ip), vehicle: saline 98 % of control

CCCCCCCCCCCCOc1cccc(OCCCCCCCCCCCC)c1
inactive: [9] 92 % of control | [10] 87 % of control | [11] 87 % of control

NC(CC(=O)O)C(=O)OCc1ccccc1 (stereo not given)
inactive: [12] 95 % of control | dose: 100.0 mg/kg/injection, schedule: Q04DX002 (ip), vehicle: Klucel (hydroxypropylcellulose) (HPC) 92 % of control | [13] 95 % of control | dose: 200.0 mg/kg/injection, schedule: Q04DX002 (ip), vehicle: Klucel (hydroxypropylcellulose) (HPC) 103 % of control | dose: 400.0 mg/kg/injection, schedule: Q04DX002 (ip), vehicle: Klucel (hydroxypropylcellulose) (HPC) 95 % of control

CC(C)(C)CC(C)(C)NCC(O)COc1ccc(C(C)(C)c2ccc(OCC(O)CNC(C)(C)CC(C)(C)C)cc2)cc1 (stereo not given)
inactive: dose: 3.13 mg/kg/injection, schedule: Q04DX003 (ip), vehicle: other 93 % of control | dose: 6.25 mg/kg/injection, schedule: Q01DX001 (ip), vehicle: saline sonified 97 % of control | dose: 6.25 mg/kg/injection, schedule: Q04DX003 (ip), vehicle: other 97 % of control | dose: 12.5 mg/kg/injection, schedule: Q01DX001 (ip), vehicle: saline sonified 96 % of control | dose: 12.5 mg/kg/injection, schedule: Q04DX003 (ip), vehicle: other 98 % of control | dose: 25.0 mg/kg/injection, schedule: Q04DX003 (ip), vehicle: other 93 % of control

O=C1CCC(c2ccccc2)c2ccccc21 (stereo not given)
inactive: [9] 99 % of control | [10] 97 % of control | [11] 100 % of control

C/C=C(/Cl)c1c(C)cc(C)cc1C
inactive: dose: 25.0 mg/kg/injection, schedule: Q01DX009 (ip), vehicle: saline with Tween-80 91 % of control | [14] 98 % of control | [4] 89 % of control and 91 % of control | dose: 100.0 mg/kg/injection, schedule: Q04DX003 (ip), vehicle: saline with Tween-80 101 % of control | dose: 200.0 mg/kg/injection, schedule: Q04DX003 (ip), vehicle: saline with Tween-80 98 % of control | [6] 98 % of control | dose: 400.0 mg/kg/injection, schedule: Q04DX003 (ip), vehicle: saline with Tween-80 101 % of control

OC1CCSc2ccc3ccccc3c21 (stereo not given)
inactive: [7] 114 % of control | [8] 104 % of control | dose: 400.0 mg/kg/injection, schedule: Q01DX009 (ip), vehicle: saline 104 % of control

C=C(C)/C=C/C1CCCCC1
inactive: [14] 95 % of control | [4] 106 % of control | [5] 95 % of control

Cc1cc(N(C)C)ccc1C=O
inactive: [12] 94 % of control | [1] 97 % of control | [13] 105 % of control | dose: 200.0 mg/kg/injection, schedule: Q04DX003 (ip), vehicle: Klucel (hydroxypropylcellulose) (HPC) 105 % of control | dose: 400.0 mg/kg/injection, schedule: Q01DX009 (ip), vehicle: Klucel (hydroxypropylcellulose) (HPC) 103 % of control | dose: 400.0 mg/kg/injection, schedule: Q04DX003 (ip), vehicle: Klucel (hydroxypropylcellulose) (HPC) 98 % of control

CCOc1ccc2ccsc2c1
inactive: [2] 98 % of control | dose: 200.0 mg/kg/injection, schedule: Q01DX001 (ip), vehicle: saline 98 % of control | dose: 400.0 mg/kg/injection, schedule: Q01DX001 (ip), vehicle: saline 96 % of control

N#Cc1cn(C2OC(CO)C(O)C2O)c2ncnc([Se]Cc3ccc([N+](=O)[O-])cc3)c12 (stereo not given)
inactive: dose: 3.12 mg/kg/injection, schedule: Q01DX005 (ip), vehicle: saline 109 % of control | dose: 6.25 mg/kg/injection, schedule: Q01DX005 (ip), vehicle: saline 106 % of control | dose: 12.5 mg/kg/injection, schedule: Q01DX005 (ip), vehicle: saline 102 % of control

Cc1cc(S(=O)(=O)c2cc(C)c(O)c(C(=O)O)c2)cc(C(=O)O)c1O
inactive: dose: 100.0 mg/kg/injection, schedule: Q04DX002 (ip), vehicle: carboxymethylcellulose (CMC) 95 % of control | dose: 200.0 mg/kg/injection, schedule: Q04DX002 (ip), vehicle: carboxymethylcellulose (CMC) 98 % of control
